# Read-outs that look alike come from different tables or passages of the source.
# How the values were obtained:
# Assay in all cases: biochemical
# Type in all cases: binding
# [1] = target: T1, cellular kinases of SH-SY5Y cells (Homo sapiens, UniProt Q8IVH8); conditions: 2µM, SH-SY5Y cells, read-out: KiNativ in-cell binding, % Inhibition, MAP4K3
# T1 construct: endogenous in cells; host or cells: SH-SY5Y
# Source text: (§1) As KINOMEscan is an in vitro assay, and as different cell types have variable kinase expression profiles we sought to determine the kinase binding profile in our SH-SY5Y TFEB-relocalization cell model. […] Bound kinases were pulled down and analyzed by mass spectrometry to determine the in situ kinase binding profile for each compound.
# [2] = target: cellular kinases of SH-SY5Y cells (Homo sapiens, UniProt P53350); conditions: 2µM, SH-SY5Y cells, read-out: KiNativ in-cell binding, % Inhibition, PLK1
# cellular kinases of SH-SY5Y cells (Homo sapiens, UniProt P53350), sequence (P53350 whole entry): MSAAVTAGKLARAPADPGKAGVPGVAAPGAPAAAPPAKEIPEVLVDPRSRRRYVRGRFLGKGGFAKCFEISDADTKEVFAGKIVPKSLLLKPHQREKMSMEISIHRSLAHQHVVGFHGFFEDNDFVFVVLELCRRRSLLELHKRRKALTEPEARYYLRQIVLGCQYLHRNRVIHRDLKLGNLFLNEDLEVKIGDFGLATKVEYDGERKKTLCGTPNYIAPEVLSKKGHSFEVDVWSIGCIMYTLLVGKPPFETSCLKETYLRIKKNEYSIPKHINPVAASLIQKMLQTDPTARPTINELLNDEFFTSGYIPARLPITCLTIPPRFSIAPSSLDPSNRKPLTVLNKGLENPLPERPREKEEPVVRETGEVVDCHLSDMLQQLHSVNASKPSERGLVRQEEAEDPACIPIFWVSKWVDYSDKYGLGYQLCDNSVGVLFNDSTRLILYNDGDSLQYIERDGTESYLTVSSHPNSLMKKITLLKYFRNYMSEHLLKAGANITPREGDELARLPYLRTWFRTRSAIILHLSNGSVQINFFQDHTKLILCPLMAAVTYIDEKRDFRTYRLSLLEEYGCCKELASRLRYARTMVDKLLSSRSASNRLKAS
# Source text: as §1
# [3] = target: cellular kinases of SH-SY5Y cells (Homo sapiens, UniProt P51617); conditions: 2µM; SH-SY5Y cells; labeling site Lys2; peptide AIQFLHQDSPSLIHGDIKSSNVLLDER
# cellular kinases of SH-SY5Y cells (Homo sapiens, UniProt P51617), sequence (P51617 whole entry): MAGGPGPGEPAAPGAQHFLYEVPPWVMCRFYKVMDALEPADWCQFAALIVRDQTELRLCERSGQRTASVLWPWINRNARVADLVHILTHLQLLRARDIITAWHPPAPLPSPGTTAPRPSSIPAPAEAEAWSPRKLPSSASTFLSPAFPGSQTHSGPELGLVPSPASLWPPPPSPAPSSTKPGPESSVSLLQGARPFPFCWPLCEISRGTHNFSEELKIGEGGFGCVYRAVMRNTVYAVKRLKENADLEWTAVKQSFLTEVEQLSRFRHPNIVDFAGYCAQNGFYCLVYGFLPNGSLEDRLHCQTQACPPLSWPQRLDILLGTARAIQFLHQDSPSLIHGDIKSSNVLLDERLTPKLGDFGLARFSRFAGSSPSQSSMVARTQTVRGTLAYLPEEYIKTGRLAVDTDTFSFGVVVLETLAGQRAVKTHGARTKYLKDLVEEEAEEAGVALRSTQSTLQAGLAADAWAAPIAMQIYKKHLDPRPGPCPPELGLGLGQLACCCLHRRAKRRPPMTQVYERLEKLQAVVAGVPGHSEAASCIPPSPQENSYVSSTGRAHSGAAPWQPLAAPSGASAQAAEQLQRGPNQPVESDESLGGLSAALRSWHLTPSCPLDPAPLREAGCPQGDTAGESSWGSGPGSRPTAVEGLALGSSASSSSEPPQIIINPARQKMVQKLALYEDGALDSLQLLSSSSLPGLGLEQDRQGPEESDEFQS
# Source text: as §1
# [4] = target: T2, cellular kinases of SH-SY5Y cells (Homo sapiens, UniProt P52564); conditions: 2µM, SH-SY5Y cells; for inhibition at 2 µM: read-out: KiNativ in-cell binding, % Inhibition, MAP2K6
# T2 sequence (P52564 1-334): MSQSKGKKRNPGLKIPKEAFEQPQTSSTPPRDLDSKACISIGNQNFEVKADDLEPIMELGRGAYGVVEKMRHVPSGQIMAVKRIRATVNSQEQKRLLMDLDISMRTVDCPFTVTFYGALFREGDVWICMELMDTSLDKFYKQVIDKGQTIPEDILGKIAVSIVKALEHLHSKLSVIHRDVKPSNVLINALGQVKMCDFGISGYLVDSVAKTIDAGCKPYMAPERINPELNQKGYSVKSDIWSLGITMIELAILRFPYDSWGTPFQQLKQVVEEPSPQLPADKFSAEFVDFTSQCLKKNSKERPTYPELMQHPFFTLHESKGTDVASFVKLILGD
# Source text: as §1
# [5] = target: cellular kinases of SH-SY5Y cells (Homo sapiens, UniProt P48736); conditions: 2µM; SH-SY5Y cells; Labeling Site ATP; KKPLWLEFK; read-out: KiNativ in-cell binding, % Inhibition, PIK3CG
# Source text: as §1
# [6] = target: cellular kinases of SH-SY5Y cells (Homo sapiens, UniProt Q8TBX8); conditions: 2µM, SH-SY5Y cells, Labeling Site ATP, read-out: KiNativ in-cell binding, % Inhibition, PIP4K2C
# cellular kinases of SH-SY5Y cells (Homo sapiens, UniProt Q8TBX8), sequence (Q8TBX8 whole entry): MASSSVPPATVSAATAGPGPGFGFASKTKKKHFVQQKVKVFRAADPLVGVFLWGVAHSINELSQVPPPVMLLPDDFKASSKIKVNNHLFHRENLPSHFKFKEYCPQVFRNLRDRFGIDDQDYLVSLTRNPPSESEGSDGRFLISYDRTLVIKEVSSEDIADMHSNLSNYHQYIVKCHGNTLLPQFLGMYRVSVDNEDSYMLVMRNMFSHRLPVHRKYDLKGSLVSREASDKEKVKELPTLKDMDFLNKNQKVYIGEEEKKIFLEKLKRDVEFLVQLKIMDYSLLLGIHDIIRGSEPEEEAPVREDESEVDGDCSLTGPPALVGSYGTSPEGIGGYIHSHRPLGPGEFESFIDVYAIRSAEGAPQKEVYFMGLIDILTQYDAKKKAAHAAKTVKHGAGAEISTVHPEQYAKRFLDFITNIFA
# Source text: as §1
# [7] = target: cellular kinases of SH-SY5Y cells (Homo sapiens, UniProt Q9Y6M4); conditions: 2µM; SH-SY5Y cells; Labeling Site Lys2; DVKPENFLIGRPGNK; read-out: KiNativ in-cell binding, % Inhibition, CSNK1G3
# Source text: as §1
# [8] = target: cellular kinases of SH-SY5Y cells (Homo sapiens, UniProt Q13535); conditions: 2µM; SH-SY5Y cells; Labeling Site ATP; FYIMMCKPK; read-out: KiNativ in-cell binding, % Inhibition, ATR
# Source text: as §1
# [9] = target: cellular kinases of SH-SY5Y cells (Homo sapiens, UniProt P50750); conditions: 2µM, SH-SY5Y cells, read-out: KiNativ in-cell binding, % Inhibition, CDK9
# cellular kinases of SH-SY5Y cells (Homo sapiens, UniProt P50750), sequence (P50750 whole entry): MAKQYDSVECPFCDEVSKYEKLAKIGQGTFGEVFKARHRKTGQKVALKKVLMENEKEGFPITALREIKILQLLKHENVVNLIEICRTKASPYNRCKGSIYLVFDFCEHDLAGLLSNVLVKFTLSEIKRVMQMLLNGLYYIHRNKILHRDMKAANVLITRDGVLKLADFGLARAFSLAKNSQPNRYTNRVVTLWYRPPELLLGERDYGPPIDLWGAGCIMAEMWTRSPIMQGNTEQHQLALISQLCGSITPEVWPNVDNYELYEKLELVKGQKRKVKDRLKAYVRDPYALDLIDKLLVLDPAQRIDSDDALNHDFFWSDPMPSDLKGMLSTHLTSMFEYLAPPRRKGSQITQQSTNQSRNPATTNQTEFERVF
# Source text: as §1
# [10] = target: cellular kinases of SH-SY5Y cells (Homo sapiens, UniProt Q5S007); conditions: 2µM; SH-SY5Y cells; Labeling Site Lys2; DLKPHNVLLFTLYPNAAIIAK; read-out: KiNativ in-cell binding, % Inhibition, LRRK2
# Source text: as §1
# [11] = target: cellular kinases of SH-SY5Y cells (Homo sapiens, UniProt O75716); conditions: 2µM; SH-SY5Y cells; Labeling Site Lys2; DLKPTNILLGDEGQPVLMDLGSMNQACIHVEGSR; read-out: KiNativ in-cell binding, % Inhibition, STK16
# Source text: as §1
# [12] = target: cellular kinases of SH-SY5Y cells (Homo sapiens, UniProt P04049); conditions: 2µM; SH-SY5Y cells; Labeling Site Lys2; DMKSNNIFLHEGLTVK; read-out: KiNativ in-cell binding, % Inhibition, RAF1
# Source text: as §1
# [13] = target: T3, cellular kinases of SH-SY5Y cells (Homo sapiens, UniProt Q13418); conditions: 2µM, SH-SY5Y cells
# T3 construct: endogenous in cells; host or cells: SH-SY5Y
# T3 sequence (Q13418 whole entry): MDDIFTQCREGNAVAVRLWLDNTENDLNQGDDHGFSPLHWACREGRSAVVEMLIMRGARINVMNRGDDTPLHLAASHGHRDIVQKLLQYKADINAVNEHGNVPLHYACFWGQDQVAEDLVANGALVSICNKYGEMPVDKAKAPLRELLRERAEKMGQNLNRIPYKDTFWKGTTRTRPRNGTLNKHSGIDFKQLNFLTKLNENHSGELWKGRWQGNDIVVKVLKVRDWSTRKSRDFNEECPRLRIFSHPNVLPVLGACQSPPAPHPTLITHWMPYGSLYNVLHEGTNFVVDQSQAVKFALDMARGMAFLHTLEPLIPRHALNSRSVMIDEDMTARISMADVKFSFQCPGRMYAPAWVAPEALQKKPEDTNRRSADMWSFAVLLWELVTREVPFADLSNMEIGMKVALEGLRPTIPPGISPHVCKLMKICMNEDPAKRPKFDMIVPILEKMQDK
# Source text: as §1
# [14] = target: cellular kinases of SH-SY5Y cells (Homo sapiens, UniProt P07332); conditions: 2µM; SH-SY5Y cells; Labeling Site Lys1; LRADNTLVAVKSCR; read-out: KiNativ in-cell binding, % Inhibition, FES
# cellular kinases of SH-SY5Y cells (Homo sapiens, UniProt P07332), sequence (P07332 whole entry): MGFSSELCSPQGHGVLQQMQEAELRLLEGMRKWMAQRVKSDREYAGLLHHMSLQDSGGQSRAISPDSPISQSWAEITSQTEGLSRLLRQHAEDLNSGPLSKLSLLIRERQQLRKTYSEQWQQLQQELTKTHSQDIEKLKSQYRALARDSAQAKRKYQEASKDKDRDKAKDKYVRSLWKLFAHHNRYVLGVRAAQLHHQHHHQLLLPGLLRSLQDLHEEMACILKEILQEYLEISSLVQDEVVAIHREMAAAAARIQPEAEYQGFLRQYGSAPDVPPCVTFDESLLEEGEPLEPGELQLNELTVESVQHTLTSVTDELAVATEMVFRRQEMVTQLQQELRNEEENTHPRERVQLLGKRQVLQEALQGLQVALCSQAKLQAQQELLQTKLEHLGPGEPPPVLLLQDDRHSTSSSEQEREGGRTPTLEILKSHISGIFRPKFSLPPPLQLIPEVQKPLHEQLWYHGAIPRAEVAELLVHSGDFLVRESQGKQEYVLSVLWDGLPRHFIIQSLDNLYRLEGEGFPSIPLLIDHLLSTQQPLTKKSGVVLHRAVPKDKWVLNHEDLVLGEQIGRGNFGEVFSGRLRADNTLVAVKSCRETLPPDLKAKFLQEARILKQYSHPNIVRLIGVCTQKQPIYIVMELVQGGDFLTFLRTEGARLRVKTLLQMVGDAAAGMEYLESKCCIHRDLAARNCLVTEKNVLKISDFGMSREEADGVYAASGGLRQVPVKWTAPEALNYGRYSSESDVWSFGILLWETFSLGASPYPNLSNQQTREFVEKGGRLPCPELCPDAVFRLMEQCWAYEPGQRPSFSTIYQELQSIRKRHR
# Source text: as §1
# [15] = target: T4, cellular kinases of SH-SY5Y cells (Homo sapiens, UniProt Q8IZL9); conditions: 2µM; SH-SY5Y cells; Labeling Site Lys2; DLKPANLLISASGQLK; read-out: KiNativ in-cell binding, % Inhibition, CDK20
# T4 construct: endogenous in cells; host or cells: SH-SY5Y
# Source text: as §1
# [16] = target: cellular kinases of SH-SY5Y cells (Homo sapiens, UniProt O43318); conditions: 2µM; SH-SY5Y cells; Labeling Site Lys2; DLKPPNLLLVAGGTVLK; read-out: KiNativ in-cell binding, % Inhibition, MAP3K7
# cellular kinases of SH-SY5Y cells (Homo sapiens, UniProt O43318), sequence (O43318 whole entry): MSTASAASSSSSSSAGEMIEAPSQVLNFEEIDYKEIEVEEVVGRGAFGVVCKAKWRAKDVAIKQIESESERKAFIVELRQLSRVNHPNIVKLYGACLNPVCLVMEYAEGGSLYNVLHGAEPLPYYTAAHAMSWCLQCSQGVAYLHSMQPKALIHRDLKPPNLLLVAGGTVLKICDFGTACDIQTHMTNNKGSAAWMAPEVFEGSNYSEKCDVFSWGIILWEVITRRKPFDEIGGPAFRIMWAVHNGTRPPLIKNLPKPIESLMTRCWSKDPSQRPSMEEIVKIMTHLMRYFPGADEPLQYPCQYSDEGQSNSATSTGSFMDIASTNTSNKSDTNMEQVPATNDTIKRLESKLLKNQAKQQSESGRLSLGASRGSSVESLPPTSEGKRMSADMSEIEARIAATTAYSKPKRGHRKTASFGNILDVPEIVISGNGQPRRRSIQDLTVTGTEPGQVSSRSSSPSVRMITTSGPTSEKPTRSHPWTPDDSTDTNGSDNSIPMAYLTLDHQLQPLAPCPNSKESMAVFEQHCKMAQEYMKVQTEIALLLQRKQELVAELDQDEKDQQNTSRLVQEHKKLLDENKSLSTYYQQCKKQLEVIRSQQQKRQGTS
# Source text: as §1
# [17] = target: T5, cellular kinases of SH-SY5Y cells (Homo sapiens, UniProt Q9NYL2); conditions: 2µM; SH-SY5Y cells; Labeling Site Lys1; WISQDKEVAVKK; read-out: KiNativ in-cell binding, % Inhibition, MAP3K20/ZAK
# T5 construct: endogenous in cells; host or cells: SH-SY5Y
# Source text: as §1
# T1 sequence (Q8IVH8 whole entry): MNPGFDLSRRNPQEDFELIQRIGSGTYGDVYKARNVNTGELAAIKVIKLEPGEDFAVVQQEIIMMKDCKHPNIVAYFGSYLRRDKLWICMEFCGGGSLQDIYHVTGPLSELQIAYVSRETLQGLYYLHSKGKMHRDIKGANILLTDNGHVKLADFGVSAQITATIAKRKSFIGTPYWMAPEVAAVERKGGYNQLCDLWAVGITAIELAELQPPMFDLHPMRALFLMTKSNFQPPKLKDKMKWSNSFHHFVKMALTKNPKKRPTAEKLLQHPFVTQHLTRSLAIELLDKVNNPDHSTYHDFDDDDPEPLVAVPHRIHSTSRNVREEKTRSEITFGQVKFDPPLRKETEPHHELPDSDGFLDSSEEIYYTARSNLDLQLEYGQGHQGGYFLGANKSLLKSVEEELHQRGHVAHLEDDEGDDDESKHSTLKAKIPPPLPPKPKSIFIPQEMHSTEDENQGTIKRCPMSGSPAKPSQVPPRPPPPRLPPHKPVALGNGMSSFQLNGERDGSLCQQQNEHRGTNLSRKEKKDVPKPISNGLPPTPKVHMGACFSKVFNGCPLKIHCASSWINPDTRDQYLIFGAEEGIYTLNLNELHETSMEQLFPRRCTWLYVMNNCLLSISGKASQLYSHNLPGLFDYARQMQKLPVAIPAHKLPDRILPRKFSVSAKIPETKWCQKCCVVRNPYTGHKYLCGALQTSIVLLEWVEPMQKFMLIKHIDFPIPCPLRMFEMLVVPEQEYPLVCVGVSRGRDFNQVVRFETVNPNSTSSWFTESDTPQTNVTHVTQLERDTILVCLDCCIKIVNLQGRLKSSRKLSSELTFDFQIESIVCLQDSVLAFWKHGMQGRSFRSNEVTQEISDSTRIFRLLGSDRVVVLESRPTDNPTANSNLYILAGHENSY
smiles,measurement,setting,value
Cc1cccc(-c2nc(Nc3ccc4ncsc4c3)c3ccccc3n2)n1 [NK140],inhibition at 2 µM,"[1]; Labeling Site Lys1, NVNTGELAAIKVIK",29.8%
same,inhibition at 2 µM,"[1]; Labeling Site Lys2, DIKGANILLTDNGHVK",20.5%
same,inhibition at 2 µM,"[2]; Labeling Site Lys1, CFEISDADTKEVFAGKIVPK",26%
same,inhibition at 2 µM,"[2]; Labeling Site Lys2, DLKLGNLFLNEDLEVK",9%
same,"KiNativ in-cell binding, IRAK1",[3],-26.5
same,inhibition at 2 µM,"[4]; Labeling Site Activation Loop, MCDFGISGYLVDSVAKTIDAGCKPYMAPER",-15.9%
same,inhibition at 2 µM,"[4]; Labeling Site Lys1, HVPSGQIMAVKR",15.4%
same,"KiNativ in-cell binding, MAP2K6","[4]; labeling site Lys2, peptide DVKPSNVLINALGQVK",17.8
same,inhibition at 2 µM,[5],27.6%
same,inhibition at 2 µM,[6]; TLVIKEVSSEDIADMHSNLSNYHQYIVK,-7%
same,inhibition at 2 µM,[6]; VKELPTLKDMDFLNK,7.2%
same,inhibition at 2 µM,[7],-29%
same,inhibition at 2 µM,[8],-42.5%
same,inhibition at 2 µM,"[9]; Labeling Site ATP Loop, IGQGTFGEVFKAR",2.1%
same,inhibition at 2 µM,"[9]; Labeling Site Lys2, DMKAANVLITR",-6%
same,inhibition at 2 µM,[10],6%
same,inhibition at 2 µM,[11],-42.2%
same,inhibition at 2 µM,[12],32.5%
same,inhibition at 2 µM,"[13]; Labeling Site Protein Kinase Domain, ISMADVKFSFQCPGR, read-out: KiNativ in-cell binding, % Inhibition, ILK",-31.8%
same,"KiNativ in-cell binding, ILK","[13]; labeling site Lys1, peptide WQGNDIVVKVLK",-23.6
same,inhibition at 2 µM,[14],17.1%
same,inhibition at 2 µM,[15],9.5%
same,inhibition at 2 µM,[16],8.7%
same,inhibition at 2 µM,[17],-2%

# Source: article PMC9851200, “Multiparameter phenotypic screening for endogenous TFEB and TFE3 translocation identifies novel chemical series modulating lysosome function” (Autophagy, 2022)
